Measurements published in patent US20230257359A1, “4-ARYLQUINAZOLINE DERIVATIVES AS METHIONINE ADENOSYLTRANSFERASE 2A INHIBITORS” (IDEAYA BIOSCIENCES, INC., priority 2020, published 2023).

Key:
hMAT2A [1] = target: T1, hMAT2A (Homo sapiens, UniProt P31153); experiment: Phosphate Sensor Fluorescence Assay (MAT2A enzyme inhibition); format: biochemical; parameters: Human MAT2A: Cepter, amino acids 1-395; purchased Cepter clone ID 329, lot 00023-123; clone ID 334, lot 00023-148; details: L-methionine and ATP 500 uM, 1 hour
Procedure: (§1) The ability of the compound of present disclosure to inhibit MAT2A enzyme was determined using the Malachite Green or Phosphate Sensor Fluorescence Assay described below.
Biologic Example B. Phosphate Sensor Fluorescence Assay
MAT2A enzyme is incubated with a test compound in DMSO or DMSO and its substrates (L-methionine and ATP) in a microtiter plate. The enzymatic reaction is stopped by the addition of Working Phosphate Sensor Mixture. The plate is analyzed for fluorescence at 450 nm. The high control (DMSO with enzyme and its substrates) gives high fluorescence which represents no inhibition of enzymatic activity while the low control (DMSO with MAT2A substrates and no enzyme) gives low fluorescence which represents full inhibition of enzymatic activity.
Human MAT2A: Cepter, amino acids 1-395
Assay Buffer: 50 mM Tris, pH 7.5/50 mM KCl/10 mM MgCl2/0.01% Brij-35/1 mM DTT/0.1% BGG/40 nM PNP/6 uM 7-MEG
MAT2A: 10 nM for Cepter clone ID 329, lot 00023-123 before the addition of Working Phosphate Sensor Mixture • 5 nM for Cepter clone ID 334, lot 00023-148 before the addition of Working Phosphate Sensor Mixture
L-methionine: 500 uM before the addition of Working Phosphate Sensor Mixture
ATP: 500 uM before the addition of Working Phosphate Sensor Mixture
For the assay, a mixture of 1 mM L-methionine/1 mM ATP (2× final pre-stopped concentration) in assay buffer; MAT2A (2× final pre-stopped concentration) in Assay Buffer and Working Phosphate Sensor Mixture (1.5 uM Phosphate Sensor/30 mM EDTA in Assay Buffer, which is 3× final concentrations) were prepared. Test compounds or DMSO were added to the appropriate well suing D300e digital dispenser. 5 μl/well of Assay Buffer was added to the wells corresponding to the negative control and 5 μl/well of MAT2A was added to all the wells except for those corresponding to the negative control. After incubating the plate at room temperature for 15 minutes, 5 μl/well of the 1 mM L-methionine/1 mM ATP mixture was added to all wells. The plate was centrifuged at 1000 rpm for 1 minute and then incubated at room temperature for 1 hour. 5 μl of the Working Phosphate Sensor Mixture was added to all wells and the plate was centrifuged at 1000 rpm for 1 minute. The plate was read for fluorescence at 450 nm after exciting at 430 nm.
Percent inhibition was calculated in Chemical and Biological Information System (CBIS), (ChemInnovation Software Inc.). Curves were fitted by CBIS as % inhibition vs. log [compound concentration] using a 4-parameter inhibition model.
Fit=(A+((B−A)/(1+((C/x)^D))))

hMAT2A [2] = target: T1, hMAT2A; experiment: Malachite Green Assay (MAT2A enzyme inhibition); format: biochemical; parameters: amino acids 1-395; purchased Cepter; details: hMAT2A 50 nM, substrates 500 uM each, 1 hour
Procedure: as §1
Biologic Example A. Malachite Green Assay
Enzyme: MAT2A • hMAT2A: 50 nM, Cepter, 10 mg/mL (234 μM), amino acids 1-395 • Substrates: 500 uM each • Reaction time: 1 hour
L-methionine Substrate: Alfa Aesar catalog #J61904
ATP Substrate: Alfa Aesar cat #J60336
Malachite Green Detection Reagent: Millipore Sigma catalog #MAK307-1KT
Assay buffer: 50 mM Tris, pH 7.5/50 mM KCl/10 mM MgCl2/0.01% Brij-35/1 mM DTT/0.1% BGG
0% inhibition control: DMSO
100% inhibition control: No enzyme
5 μL of 3× final concentration test compounds in DMSO or DMSO were transferred to the appropriate wells of a microtiter plate and the plate was centrifuged at 1000 rpm for 1 minute. 5 μL of 3× final concentration MAT2A enzyme in assay buffer or assay buffer alone was transferred to the appropriate wells and the plate was centrifuged at 1000 rpm for 1 minute. The plate was incubated at room temperature for 15 minutes and then 5 μL of 3× the L-methionine and ATP substrate mixture in assay buffer was transferred to all the test wells. The plate was centrifuged at 1000 rpm for 1 minute and then incubated at room temperature for 1 hour. 5 μL of malachite green detection reagent was added to all the test wells and the plate was centrifuged at 1000 rpm for 1 minute and then incubated at room temperature for 30 minutes. The plate was read for absorbance at 620 nm on a plate reader (e.g., Infinite M1000). The high control (DMSO) with high absorbance represents no inhibition of enzymatic reaction while the low control (no enzyme) with low absorbance represents full inhibition of enzymatic reaction.

T1 sequence (P31153 whole entry, the tested form may be a part): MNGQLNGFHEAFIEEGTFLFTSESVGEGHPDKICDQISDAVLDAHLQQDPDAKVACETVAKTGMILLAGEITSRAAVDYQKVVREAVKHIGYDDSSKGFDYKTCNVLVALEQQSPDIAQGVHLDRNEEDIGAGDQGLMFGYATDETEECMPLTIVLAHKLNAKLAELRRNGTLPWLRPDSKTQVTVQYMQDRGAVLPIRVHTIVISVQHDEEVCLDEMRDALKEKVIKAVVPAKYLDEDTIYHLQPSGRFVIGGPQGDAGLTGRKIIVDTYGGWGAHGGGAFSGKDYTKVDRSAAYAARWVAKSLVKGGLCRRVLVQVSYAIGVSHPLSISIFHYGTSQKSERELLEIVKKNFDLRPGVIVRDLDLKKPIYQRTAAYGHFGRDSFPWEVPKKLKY

| IC50 (hMAT2A [1]; class symbols) | IC50 (hMAT2A [2]; numeric bound) | IC50 (hMAT2A [1]; numeric bound) | IC50 (hMAT2A [2]; class symbols) | SMILES |
| --- | --- | --- | --- | --- |
| 1 to 10 µM |  |  |  | Oc1nc(-c2cccnc2)c2cc(Br)ccc2n1 [1.017, 6-bromo-4-(pyridin-3-yl)quinazolin-2-ol] |
| 0.01 to 0.2 µM |  |  |  | Cc1ccccc1-c1nc(O)nc2ccc(C3CC3)cc12 [1.016, 6-cyclopropyl-4-(o-tolyl)quinazolin-2-ol] |
| 0.01 to 0.2 µM |  |  |  | COc1cc(C2CC2)cc2c(-c3ccccc3)nc(O)nc12 [1.019, 6-cyclopropyl-8-methoxy-4-phenylquinazolin-2-ol] |
| 1 to 10 µM |  |  |  | Cc1ccc2nc(O)nc(-c3ccccc3)c2n1 [1.018, 6-methyl-4-phenylpyrido[3,2-d]pyrimidin-2-ol] |
| 0.01 to 0.2 µM |  |  |  | Cc1ncccc1-c1nc(O)nc2ccc(Br)cc12 [1.020, 6-bromo-4-(2-methylpyridin-3-yl)quinazolin-2-ol] |
| 0.01 to 0.2 µM |  |  |  | Oc1nc(-c2ccccc2)c2cc(C(F)(F)F)ccc2n1 [1.015, 4-phenyl-6-(trifluoromethyl)quinazolin-2-ol] |
| 1 to 10 µM |  |  |  | Oc1nc(-c2cccnc2C(F)(F)F)c2cc(Br)ccc2n1 [1.021, 6-bromo-4-(2-(trifluoromethyl)pyridin-3-yl)quinazolin-2-ol] |

The remaining lines, values behind:

| SMILES | IC50 (hMAT2A [1]; class symbols) | IC50 (hMAT2A [2]; numeric bound) | IC50 (hMAT2A [1]; numeric bound) | IC50 (hMAT2A [2]; class symbols) |
| --- | --- | --- | --- | --- |
| Cc1ccc2[nH]c(=O)nc(-c3ccccc3)c2c1 [1.014, 6-methyl-4-phenylquinazolin-2-ol] | 0.5 to 1 µM |  |  |  |
| COC(=O)Cc1nc(-c2ccccc2)c2cc(Cl)ccc2n1 [1.012, methyl 2-(6-chloro-4-phenylquinazolin-2-yl)acetate] |  | > 10 µM | > 10 µM |  |
| NC(=O)Cc1nc(-c2ccccc2)c2cc(Cl)ccc2n1 [1.011, 2-(6-chloro-4-phenylquinazolin-2-yl)acetamide] |  | > 10 µM | > 10 µM |  |
| CC(C)(C)OC(=O)N1CC(Oc2nc(-c3ccccc3)c3cc(Cl)ccc3n2)C1 [1.004, tert-butyl 3-((6-chloro-4-phenylquinazolin-2-yl)oxy)azetidine-1-carboxylate] |  | > 10 µM | > 10 µM |  |
| O=c1nc(-c2ccccc2)c2cc(Cl)ccc2[nH]1 [1.001, 6-chloro-4-phenylquinazolin-2-ol] | 0.01 to 0.2 µM |  |  | 0.01 to 0.2 µM |
| CNC(=O)c1nc(-c2ccccc2)c2cc(Cl)ccc2n1 [1.008, 6-chloro-N-methyl-4-phenylquinazoline-2-carboxamide] |  | > 10 µM | > 10 µM |  |
| N#Cc1nc(-c2ccccc2)c2cc(Cl)ccc2n1 [1.005, 6-chloro-4-phenylquinazoline-2-carbonitrile] |  | > 10 µM | > 10 µM |  |
| Oc1nc(-c2cccnc2Cl)c2cc(Br)ccc2n1 [1.003, 6-bromo-4-(2-chloropyridin-3-yl)quinazolin-2-ol] | 0.2 to 0.5 µM |  |  |  |
| N#CCc1nc(-c2ccccc2)c2cc(Cl)ccc2n1 [1.010, 2-(6-chloro-4-phenylquinazolin-2-yl)acetonitrile] |  | > 10 µM | > 10 µM |  |
| O=C(O)c1nc(-c2ccccc2)c2cc(Cl)ccc2n1 [1.006, 6-chloro-4-phenylquinazoline-2-carboxylic acid] |  |  | > 10 µM |  |
| OCc1nc(-c2ccccc2)c2cc(Cl)ccc2n1 [1.009] |  | > 10 µM | > 10 µM |  |
| O=c1nc(-c2ccccc2)c2cc(Br)ccc2[nH]1 [1.013, 6-bromo-4-phenylquinazolin-2-ol] | 0.01 to 0.2 µM |  |  | 0.01 to 0.2 µM |
| Clc1ccc2nc(Cl)nc(-c3ccccc3)c2c1 [1.002, 2,6-dichloro-4-phenylquinazoline] |  | > 10 µM | > 10 µM |  |
